According to article PMC12059162 (Scientific Reports, 2025):

Experiments:
[1] = test system: PANC-1 cells; test: Holographic microscopy morphometry (HoloMonitor M4); type: cell-based, human; settings: PANC-1, 0.5 µM, 72 h
Experimental: To follow the morphometric changes, a holographic transmission microscope (HoloMonitor M4; Phase Holographic Imaging AB, Lund, Sweden) was used, which uses a laser to produce 3D images of the cells[51],[52]. This […] imaging technique allows us to monitor cell morphological changes in real-time. First, the cells were seeded at a concentration of 3.5 × 10^5 cells/flask/4000 µL cell culture medium. […] At least 5 images were taken from each culture dish, taking care to assess different fields of view. These images were evaluated using the microscope software (Hstudio M4). We assessed the average area and the average optical thickness of the cells.

[2] = cited from earlier work
[3] = test system: phospho-p53 (S392); test: Human Apoptosis Array in PANC-1 cells; settings: PANC-1, 0.5 µM, 72 h
[4] = test system: XIAP; test: Human Apoptosis Array in PANC-1 cells; settings: PANC-1, 0.5 µM, 72 h
[5] = test system: FADD; test: Human Apoptosis Array in PANC-1 cells; settings: PANC-1, 0.5 µM, 72 h
[6] = in vitro; settings: mouse
[7] = test system: p53; test: qPCR apoptotic gene expression in PANC-1 cells; settings: PANC-1, 25 µM, 48 h, normalised to DMSO control
[8] = test system: PANC-1 cells; test: Annexin-V/7AAD early and late apoptosis flow cytometry; type: cell-based, human; settings: PANC-1, 0.5 µΜ, 72 h
Experimental: For apoptosis measurements, Annexin-V positive/7AAD (7-Aminoactinomycin D) negative, early apoptotic and Annexin-V/ 7AAD double positive, late apoptotic cells were differentiated using a BD FACSCalibur (BD FACSCalibur, Becton-Dickinson, San Jose, CA, USA) flow cytometer[49],[50]. […] After 24, 48, and 72 h treatment, cells were harvested with 300 µL TrypLE (Sigma Ltd. St. Louis, MO, USA). Fresh cell culture medium was then added to stop the effect of TrypLE and the harvested cells were centrifuged for 5 min (300 g). Then, the supernatant was removed, and cells were resuspended in 300 µL of Annexin binding buffer (Sony Biotechnology, Weybridge, UK). For labelling, 3–3 µL of Annexin-V-FITC (Sony Biotechnology, Weybridge, UK) and 7AAD (Sony Biotechnology, Weybridge, UK) were added, followed by 10 min incubation at room temperature in the dark. For flow cytometric analysis (BD FACSCalibur, Becton–Dickinson, San Jose, CA, USA), a minimum of 10^4 cells/sample was measured. Annexin-V was detected using the FL-1 channel (530/30), and 7AAD was detected using the FL-3 channel (670 LP). In each treatment group, 3 parallel samples were analysed. The results were evaluated using Flowing Software 2.5.1 (Turku Centre of Biotechnology, Turku, Finland).

[9] = test system: phospho-p53 (S46); test: Human Apoptosis Array in PANC-1 cells; settings: PANC-1, 0.5 µM, 72 h
[10] = test system: PANC-1 cells; test: Cell cycle analysis (PI, flow cytometry)
[11] = test system: EBC-1 cells; test: alamarBlue cell viability; settings: Homo sapiens, EBC-1, 72 h
[12] = test system: caspase-3/7; test: CellEvent Caspase-3/7 activity imaging in PANC-1 cells; settings: PANC-1, 0.5 µM, 72 h, normalised to DMSO control (n = 1)
[13] = test system: HSP60; test: Human Apoptosis Array in PANC-1 cells; settings: PANC-1, 0.5 µM, 72 h
[14] = test system: TRAIL; test: qPCR apoptotic gene expression in PANC-1 cells; settings: PANC-1, 25 µM, any of the time points (3-48 h)
[15] = test system: cIAP-1; test: Human Apoptosis Array in PANC-1 cells; settings: PANC-1, 0.5 µM, 72 h
[16] = test system: phospho-p53 (S15); test: Human Apoptosis Array in PANC-1 cells; settings: PANC-1, 0.5 µM, 72 h
[17] = test system: cleaved caspase-3; test: Human Apoptosis Array in PANC-1 cells; settings: PANC-1, 0.5 µM, 72 h
[18] = test system: MIA PaCa-2 cells; test: Cell cycle analysis (PI, flow cytometry); settings: MIA PaCa-2, 0.5 µM, 48 h
[19] = test system: PANC-1 cells; test: xCELLigence SP impedimetric cell viability; settings: Homo sapiens, PANC-1, 72 h
[20] = test system: MIA PaCa-2 cells; test: alamarBlue cell viability; settings: Homo sapiens, MIA PaCa-2, 72 h
[21] = test system: COLO-205 cells; test: alamarBlue cell viability; settings: Homo sapiens, COLO 205, 72 h, read-out: Viability (%) after 72-h treatment
[22] = test system: A2058 cells; test: alamarBlue cell viability; settings: Homo sapiens, A2058, 72 h, read-out: Viability (%) after 72-h treatment
[23] = in vitro; settings: human
[24] = test system: SMAC; test: Human Apoptosis Array in PANC-1 cells; settings: PANC-1, 0.5 µM, 72 h
[25] = read-out: IC50 values (μM) 72 hours
[26] = read-out: Viability (%) after 72-h treatment

Cc1ccccc1CN1C(=O)C2=C(CCN(Cc3ccccc3)C2)N2CCN=C12 [ONC201, reference compound]
Effect on cell morphology [1]: did not affect cell morphology
logP [2]: 2.3
phospho-p53 (S392) protein level [3]: significantly increased
XIAP protein level [4]: increase
FADD protein level [5]: significantly increased
viability at 72 h, 0.5 µM [6]: 99.4 ± 1.8%
viability at 72 h, 10 µM [6]: 89.2 ± 6.3%
viability at 72 h, 25 µM [6]: 89 ± 5.6%
p53 mRNA expression [7]: 3.3 fold
Apoptosis-inducing effect [8]: no apoptosis-inducing effect
phospho-p53 (S46) protein level [9]: significantly increased
Effect on cell cycle ([10]; PANC-1, 0.5 µM, 48 h): did not have any influence
Increase in cell number in the G2/M phase ([10]; PANC-1, 10 and 25 µM, 72 h): 2.1 fold
IC50 [11, 25]: 5.72 µM
viability at 0.5 µM [11, 26]: 101 ± 1.6%
viability at 10 µM [11, 26]: 47.1 ± 2.2%
viability at 25 µM [11, 26]: 45.5 ± 2%
Number of caspase-3/7 active cells, increase [12]: 6.6 fold
HSP60 protein level [13]: increase
TRAIL induction (mRNA) [14]: not detected
cIAP-1 protein level [15]: increase
phospho-p53 (S15) protein level [16]: significantly increased
cleaved caspase-3 protein level [17]: significantly increased
Effect on cell cycle [18]: did not have any influence
IC50 [19, 25]: 6.1 µM
viability at 0.5 µM [19, 26]: 105 ± 5.2%
viability at 10 µM [19, 26]: 16 ± 2.4%
viability at 25 µM [19, 26]: 10.2 ± 2.2%
IC50 [20, 25]: 1.12 µM
viability at 0.5 µM [20, 26]: 77.6 ± 2.3%
viability at 10 µM [20, 26]: 44.6 ± 2%
viability at 25 µM [20, 26]: 55 ± 1.6%
viability at 0.5 µM [21]: 97 ± 2.5%
viability at 10 µM [21]: 69.7 ± 2.4%
viability at 25 µM [21]: 71 ± 0.7%
viability at 0.5 µM [22]: 101 ± 1.7%
viability at 10 µM [22]: 73.7 ± 4.5%
viability at 25 µM [22]: 62.1 ± 8.7%
viability at 72 h, 0.37 µM [23]: 115 ± 1.4%
viability at 72 h, 8.6 µM [23]: 88.3 ± 7.4%
viability at 72 h, 25 µM [23]: 74.9 ± 8.6%
SMAC protein level [24]: significantly increased
